# Measured values from patent publication US8846698B2, “Pyrrolo[2,3-d]pyrimidine tropomysin-related kinase inhibitors” (Pfizer Limited, priority 2011, dated 2014).
# Target: TRKA (Homo sapiens (Human), UniProt P04629)
# Assay: Isolated TRK enzyme assay (HTRF KinEASE-TK), TRKA
# Format: biochemical
# Conditions: read-out: Trka enzyme (IC50)
# Chain of TRKA (P04629 441-796): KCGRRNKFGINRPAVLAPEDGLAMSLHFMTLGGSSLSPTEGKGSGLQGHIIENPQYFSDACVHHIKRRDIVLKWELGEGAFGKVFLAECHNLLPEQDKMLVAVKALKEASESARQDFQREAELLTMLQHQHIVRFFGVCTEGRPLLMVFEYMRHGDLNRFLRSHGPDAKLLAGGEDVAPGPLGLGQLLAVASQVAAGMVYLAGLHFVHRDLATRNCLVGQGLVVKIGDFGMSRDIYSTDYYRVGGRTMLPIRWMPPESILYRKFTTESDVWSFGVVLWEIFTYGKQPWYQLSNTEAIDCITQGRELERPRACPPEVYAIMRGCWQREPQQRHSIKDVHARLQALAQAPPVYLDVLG
row,IC50 [nM],SMILES
1,297,"CC(C)n1cc(C(=O)c2cncc(NC(=O)c3cncc(Cl)c3)c2)c2cncnc21 [Example 430, 5-Chloro-N-[5-(7-isopropyl-7H-pyrrolo[2,3-d]pyrimidine-5-carbonyl)-pyridin-3-yl]-nicotinamide]"
2,246,"CCn1cc(C(=O)Nc2cncc(C(=O)c3cn(C(C)C)c4ncncc34)c2)cn1 [Example 433, 1-Ethyl-1H-pyrazole-4-carboxylic acid [5-(7-isopropyl-7H-pyrrolo[2,3-d]pyrimidine-5-carbonyl)-pyridin-3-yl]-amide]"
3,99.9,"CC(C)n1cnc(C(=O)Nc2cncc(C(=O)c3cn(C(C)C)c4ncncc34)c2)c1 [Example 434, 1-Isopropyl-1H-imidazole-4-carboxylic acid [5-(7-isopropyl-7H-pyrrolo[2,3-d]pyrimidine-5-carbonyl)-pyridin-3-yl]-amide]"
4,107,"CCCc1cc(C(=O)Nc2cncc(C(=O)c3cn(C(C)C)c4ncncc34)c2)n(C)n1 [Example 437, 2-Methyl-5-propyl-2H-pyrazole-3-carboxylic acid [5-(7-isopropyl-7H-pyrrolo[2,3-d]pyrimidine-5-carbonyl)-pyridin-3-yl]amide]"
5,31.2,"CC(C)c1csc(C(=O)Nc2cncc(C(=O)c3cn(C(C)C)c4ncncc34)c2)n1 [Example 438, 4-Isopropyl-thiazole-2-carboxylic acid [5-(7-isopropyl-7H-pyrrolo[2,3-d]pyrimidine-5-carbonyl)-pyridin-3-yl]-amide]"
6,8390,"CC(C)n1cc(C(=O)c2cncc(NC(=O)c3c(C(F)(F)F)nn(C)c3Cl)c2)c2cncnc21 [Example 441, 5-Chloro-1-methyl-3-trifluoromethyl-1H-pyrazole-4-carboxylic acid [5-(7-isopropyl-7H-pyrrolo[2,3-d]pyrimidine-5-carbonyl)-pyridin-3-yl]-amide]"
7,47.7,"Cc1c(Cl)c(C(=O)Nc2cncc(C(=O)c3cn(C(C)C)c4ncncc34)c2)nn1C [Example 443, 4-Chloro-1,5-dimethyl-1H-pyrazole-3-carboxylic acid [5-(7-isopropyl-7H-pyrrolo[2,3-d]pyrimidine-5-carbonyl)-pyridin-3-yl]amide]"
8,5.51,"CCc1ccnc(C(=O)Nc2cncc(C(=O)c3cn(C(C)C)c4ncncc34)c2)c1 [Example 445, 4-Ethyl-pyridine-2-carboxylic acid [5-(7-isopropyl-7H-pyrrolo[2,3-d]pyrimidine-5-carbonyl)-pyridin-3-yl]-amide]"

# More lines, now with the values behind:
row,SMILES,IC50 [nM]
1,"CC(C)n1cc(C(=O)c2cncc(NC(=O)c3ccn4ncnc4c3)c2)c2cncnc21 [Example 427, [1,2,4]Triazolo[1,5-a]pyridine-7-carboxylic acid [5-(7-isopropyl-7H-pyrrolo[2,3-d]pyrimidine-5-carbonyl)-pyridin-3-yl]amide]",93.4
2,"CC(C)n1cc(C(=O)c2cncc(NC(=O)c3cc4ncccn4n3)c2)c2cncnc21 [Example 428, Pyrazolo[1,5-a]pyrimidine-2-carboxylic acid [5-(7-isopropyl-7H-pyrrolo[2,3-d]pyrimidine-5-carbonyl)-pyridin-3-yl]amide]",960
3,"CC(C)n1cc(C(=O)c2cncc(NC(=O)c3ccccn3)c2)c2cncnc21 [Example 429, Pyridine-2-carboxylic acid [5-(7-isopropyl-7H-pyrrolo[2,3-d]pyrimidine-5-carbonyl)-pyridin-3-yl]-amide]",2740
4,"CC(C)n1cc(C(=O)c2cncc(NC(=O)c3cc4occc4[nH]3)c2)c2cncnc21 [Example 431, 4H-Furo[3,2-b]pyrrole-5-carboxylic acid [5-(7-isopropyl-7H-pyrrolo1[2,3-d]pyrimidine-5-carbonyl)-pyridin-3-yl]-amide]",235
5,"CC(C)n1cc(C(=O)c2cncc(NC(=O)c3ccn4ccnc4c3)c2)c2cncnc21 [Example 432, Imidazo[1,2-a]pyridine-7-carboxylicacid [5-(7-isopropyl-7H-pyrrolo[2,3-d]pyrimidine-5-carbonyl)-pyridin-3-yl]amide]",2790
6,"COc1nc(C(=O)Nc2cncc(C(=O)c3cn(C(C)C)c4ncncc34)c2)cn2ccnc12 [Example 435, 8-Methoxy-imidazo[1,2-a]pyrazine-6-carboxylic acid [5-(7-isopropyl-7H-pyrrolo[2,3-d]pyrimidine-5-carbonyl)-pyridin-3-yl]amide]",5490
7,"CC(C)n1cc(C(=O)c2cncc(NC(=O)c3cnc4[nH]ccc4c3)c2)c2cncnc21 [Example 436, 1H-Pyrrolo[2,3-b]pyridine-5-carboxylic acid [5-(7-isopropyl-7H-pyrrolo[2,3-d]pyrimidine-5-carbonyl)-pyridin-3-yl]amide]",205
8,"Cc1coc2cnc(C(=O)Nc3cncc(C(=O)c4cn(C(C)C)c5ncncc45)c3)cc12 [Example 439, 3-Methyl-furo[2,3-c]pyridine-5-carboxylic acid [5-(7-isopropyl-7H-pyrrolo[2,3-d]pyrimidine-5-carbonyl)-pyridin-3-yl]-amide]",22.5
9,"Cc1cccc(C(=O)Nc2cncc(C(=O)c3cn(C(C)C)c4ncncc34)c2)n1 [Example 440, 6-Methyl-pyridine-2-carboxylic acid[5-(7-isopropyl-7H-pyrrolo[2,3-d]pyrimidine-5-carbonyl)-pyridin-3-yl]-amide]",676
10,"COc1ccc2[nH]c(C(=O)Nc3cncc(C(=O)c4cn(C(C)C)c5ncncc45)c3)nc2c1 [Example 442, 5-Methoxy-1H-benzimidazole-2-carboxylic acid [5-(7-isopropyl-7H-pyrrolo[2,3-d]pyrimidine-5-carbonyl)-pyridin-3-yl]amide]",36.6
11,"CC(C)n1cc(C(=O)c2cncc(NC(=O)c3nccc4[nH]ccc34)c2)c2cncnc21 [Example 444, 1H-Pyrrolo[3,2-c]pyridine-4-carboxylic acid [5-(7-isopropyl-7H-pyrrolo[2,3-d]pyrimidine-5-carbonyl)-pyridin-3-yl]amide]",496
12,"CC(C)n1cc(C(=O)c2cncc(NC(=O)c3cnc4c(c3)OCCO4)c2)c2cncnc21 [Example 446, 2,3-Dihydro-1,4-dioxino[2,3-b]pyridine-7-carboxylic acid [5-(7-isopropyl-7H-pyrrolo[2,3-d]pyrimidine-5-carbonyl)-pyridin-3-yl]-amide]",812
13,"CC(C)n1cc(C(=O)c2cncc(NC(=O)c3ccc4[nH]ccc4n3)c2)c2cncnc21 [Example 447, 1H-Pyrrolo[3,2-b]pyridine-5-carboxylic acid [5-(7-isopropyl-7H-pyrrolo[2,3-d]pyrimidine-5-carbonyl)-pyridin-3-yl]amide]",919
14,"CC(C)n1cc(C(=O)c2cncc(NC(=O)c3ccn4nccc4c3)c2)c2cncnc21 [Example 448, Pyrazolo[1,5-a]pyridine-5-carboxylic acid [5-(7-isopropyl-7H-pyrrolo[2,3-d]pyrimidine-5-carbonyl)-pyridin-3-yl]-amide]",272
15,"COc1ccc2ncc(C(=O)Nc3cncc(C(=O)c4cn(C(C)C)c5ncncc45)c3)cc2c1 [Example 449, 6-Methoxy-quinoline-3-carboxylic acid [5-(7-isopropyl-7H-pyrrolo[2,3-d]pyrimidine-5-carbonyl)-pyridin-3-yl]-amide]",155
